Measured values taken from PMC7821884, “BRAF inhibition protects against hearing loss in mice” (Science Advances, 2020).

Experiments:
[1] = system: P3-P4 FVB mouse cochlear explants; conditions: 150 μM, 24 hours
Method: Mouse cochlear explants are widely recognized as an alternative to in vivo cochlear models and pragmatic for focused drug screening ([37]). […] Medium-alone, drug-alone, and cisplatin-alone treatments were used as controls.
P3-P4 FVB mouse cochleae were dissected and maintained in culture on filter inserts in six-well plates with 1 ml of growth medium DMEM (12430-054,Gibco Life Technologies), with 1% FBS (16000-044, Gibco Life Technologies), B-27 supplement (200 μl/500 ml; 17504-44, Gibco Life Technologies), N-2 supplement (100 μl/500 ml; 17502-048, Gibco Life Technologies), and ampicillin (50 μg/ml; A5354-10ML, Sigma-Aldrich) both inside and outside the filter (Millicell, PICM03050, Millipore). […] Cochleae were imaged by confocal microscopy, two 160-μm regions from middle turns were photographed, and the number of intact HCs was counted. Two to five independent cochleae were tested for each experimental condition.

P42 FVB mice = test: Cisplatin-induced hearing loss in adult mice (ABR, OHC counts, pERK); conditions: cisplatin 30 mg/kg i.p., alone or combined with dabrafenib
Method: As described in Fig. 4A, baseline auditory brainstem response (ABR) thresholds for P42 FVB mice were established 1 week before experimental procedures. […] Animals were allowed 21 days after cisplatin injection to recover, and final ABR thresholds were recorded.
Ten milligrams of cisplatin (479306, Sigma-Aldrich) powder was dissolved in 10 ml of sterile saline (0.9% NaCl) at 37°C for 40 to 60 min. Cisplatin was administered to FVB mice at 30 mg/kg via intraperitoneal injection. One day before cisplatin injection, mice received 1 ml of saline by subcutaneous injection. To ameliorate dehydration after cisplatin injection, 1 ml of warm saline was injected twice per day for at least 7 days or until body weight started to recover. The cages of cisplatin-treated mice were placed on the heating pad for at least 7 days or until body weight began to recover. Fresh mush food was daily given for at least 7 days.
Compounds were dissolved in a mixture of 10% DMSO, 5% Tween 80 (P1754, Sigma-Aldrich), 40% PEG-E-300 (91462-1KG, Sigma-Aldrich), and 45% 0.9% saline.
ABR in mice was measured for left ears as described previously with minor modifications ([13], [34]). In brief, ABR waveforms were recorded in a sound booth (Industrial Acoustic Company) by using subdermal needles positioned in the skull, below the pinna, and at the base of the tail, and the responses were fed into a low-impedance Medusa digital biological amplifier system (RA4L; TDT; 20-dB gain). At each frequency, the stimulus intensity was reduced from 90 to 0 dB in 10-dB steps to determine the threshold decibel SPL when the electrical response was just above the noise floor. ABR waveforms were averaged in response to 500 tone bursts. The recorded signals were filtered by a band-pass filter from 300 Hz to 3 kHz. Pretreatment ABR recordings of adult FVB mice (aged 6 weeks) were acquired 1 week before all treatments, and posttreatment ABR measurements were recorded 21 days after cisplatin treatment or 14 days after noise exposure. ABR threshold was determined by the presence of any of three or more of the five waveform peaks. […] All thresholds and shifts were determined independently by two experimenters for each mouse. Individual ABR wave 1 amplitudes were measured as the difference between the positive peak and the following negative trough.
Cochleae from adult mice were prepared and examined as described previously ([85], [86]). All images were acquired with a confocal microscope (LSM 700 or 710, Zeiss). Samples were stained with phalloidin (A12379 or A12380, Invitrogen) or with antibodies for other markers. The following primary antibodies were used: anti–myosin VI (1:400; 25-6791; Proteus Bioscience), anti–myosin VIIa ([…];138-1-s, Developmental Studies Hybridoma Bank), anti-Tuj1 (1:250; 801201, BioLegend), anti-pERK (1:400; 9101S, Cell Signaling Technology), or anti-Ctbp2 (1:500; 612044, BD Transduction). Anti-rabbit Alexa Fluor 488 (1:400; A11034) and anti-mouse Alexa Fluor 647 (1:400; A31571) secondary antibodies were purchased from Invitrogen. ProLong gold antifade reagent with 4′,6-diamidino-2-phenylindole (P36941, Invitrogen) was used to counterstain nuclei.

[2] = parameters: method as in PMID 25665007, PMID 25058905, PMID 23044998; conditions: cisplatin chemotherapy; cited from earlier work
HEI-OC1 cell line = test: Caspase-Glo 3/7 activity screen for protection from cisplatin-induced cell death; format: cell-based, mouse; conditions: HEI-OC1, 50 μM cisplatin, 22 hours
Method: An unbiased screen for compounds protective against cisplatin ototoxicity ([12], [13]) was conducted using the immortalized inner ear cell line HEI-OC1 derived from mouse cochlea ([14]). One hundred sixty-two unique small-molecule kinase-specific inhibitors were screened in dose-response mode for protection from 50 μM cisplatin. A caspase-3/7 activity assay was selected to measure apoptosis using a protocol that quantifies a luminescent product derived from the cleavage of caspase-3/7 substrate (Caspase-Glo 3/7 reagent). One hundred percent luminescence was defined by cells treated with cisplatin alone, and 0% was defined by untreated cells (Fig. 1A, fig. S1, table S1, and dataset in the Supplementary Materials).
In these screens, caspase-3 cleavage was chosen as the end point indicating cisplatin-induced apoptosis, because it allowed the inhibition of cell death to be monitored at the level of any molecular target upstream of caspase-3 cleavage in the HEI-OC1 cell line. Cells were plated at a previously optimized concentration of 1600 cells per well in medium without γ-interferon to limit proliferation and tested against 50 μM cisplatin based on a previous dose–response curve. Tested compounds were dissolved in DMSO before addition to medium with a final DMSO concentration of <0.5%. The screens are described in detail in our previous publications ([12], [13]). […]

[3] = cited from earlier work
[4] = system: P3-P4 FVB mouse cochlear explants; parameters: method as in PMID 29514916, PMID 9303151; conditions: identical P3 FVB explant model; read-out: IC50, protection from cisplatin in explants; cited from earlier work
[5] = parameters: method as in PMID 25894725, PMID 26655654; conditions: cited from earlier work

Compound: N.N.[Cl][Pt][Cl] [cisplatin]
- OHCs that died with cisplatin [1]: ~40%
- survival rate of mice (P42 FVB mice): 50%
- patients with cancer with hearing loss [2]: 40 to 60%

Compound: Cc1ccc(C(=O)Cn2c3c(sc2=N)CCCC3)cc1 [Pifithrin-α]
- IC50 (HEI-OC1 cell line): 7.7 µM

Compound: O=S([O-])([O-])=S.[Na+].[Na+] [STS, sodium thiosulfate]
- lowering of incidence of hearing loss ([3]; children with localized standard-risk hepatoblastoma, 6 hours after cisplatin chemotherapy): 48%
- survival of treated patients with disseminated tumors [3]: lowered survival rate

Compound: O=C1Cc2c([nH]c3ccc(Br)cc23)-c2ccccc2N1 [kenpaullone]
- IC50 [4]: 0.2 µM

Compound: CSCC[C@@H](N)C(=O)O [D-methionine]
- IC50 [4]: 98.4 µM

Compound: O=c1c2ccccc2[se]n1-c1ccccc1 [ebselen]
- IC50 [4]: 10.8 µM

Compound: C[C@@H]1C[C@H]2[C@@H]3CCC4=CC(=O)C=C[C@]4(C)[C@@]3(F)[C@@H](O)C[C@]2(C)[C@@]1(O)C(=O)CO [dexamethasone]
- IC50 [4]: > 0.25 µM
- effectiveness in treating noise ototoxicity [5]: only partially effective
